Experimental data reported in ChEMBL document CHEMBL5154876, “Design, synthesis and promising anti-tumor efficacy of novel imidazo[1,2-a]pyridine derivatives as potent autotaxin allosteric inhibitors” (Eur J Med Chem, 2022).
Active and inactive are the calls of the source. The rule behind the calls is not given here.

How the values were obtained:
RAW264.7 [1] = test: Induction of apoptosis in mouse RAW264.7 cells assessed as necrotic cells at 0.25 uM after 48 hrs by Annexin V-FITC/PI based flow cytometric analysis (RVB=0.26%); format: functional
RAW264.7 [2] = test: Induction of cell cycle arrest in mouse RAW264.7 cells assessed as accumulation of cells in G2 phase at 0.25 uM incubated for 24 hrs by PI/RNase staining based flow cytometric analysis (RVB = 10.90%); format: functional
RAW264.7 [3] = test: Induction of apoptosis in mouse RAW264.7 cells assessed as viable cells at 1 uM after 48 hrs by Annexin V-FITC/PI based flow cytometric analysis (RVB=94.1%); format: functional; conditions: read-out: Activity
[4] = Acute toxicity in C57BL/6J mouse assessed as secretion in eye corner at 5000 mg/kg measured after 14 days; format: organism-based; conditions: in vivo, 336 h, time 14 day
RAW264.7 [5] = test: Induction of cell cycle arrest in mouse RAW264.7 cells assessed as accumulation of cells in G1 phase at 0.25 uM incubated for 24 hrs by PI/RNase staining based flow cytometric analysis (RVB = 55.06%); format: functional
RAW264.7 [6] = test: Induction of cell cycle arrest in mouse RAW264.7 cells assessed as accumulation of cells in G1 phase at 0.1 uM incubated for 24 hrs by PI/RNase staining based flow cytometric analysis (RVB = 55.06%); format: functional
RAW264.7 [7] = test: Induction of apoptosis in mouse RAW264.7 cells assessed as early apoptotic cells at 0.25 uM after 48 hrs by Annexin V-FITC/PI based flow cytometric analysis (RVB=5.57%); format: functional
MDA-MB-231 = test: Cytotoxicity against human MDA-MB-231 cells assessed as inhibition of cell growth incubated for 72 hrs by MTT assay; format: functional, cell-based; conditions: MDA-MB-231, 72 h
RAW264.7 [8] = test: Induction of apoptosis in mouse RAW264.7 cells assessed as necrotic cells at 0.1 uM after 48 hrs by Annexin V-FITC/PI based flow cytometric analysis (RVB=0.26%); format: functional
RAW264.7 [9] = test: Inhibition of colony formation in mouse RAW264.7 cells assessed as reduction in colony count at 0.1 to 1 uM incubated for 72 hrs by crystal violet staining method; format: functional, cell-based; conditions: dose 0.1-1 µM
RAW264.7 [10] = test: Induction of apoptosis in mouse RAW264.7 cells assessed as necrotic cells at 1 uM after 48 hrs by Annexin V-FITC/PI based flow cytometric analysis (RVB=0.26%); format: functional
[11] = Acute toxicity in C57BL/6J mouse assessed as safety concern at 1000 to 5000 mg/kg measured after 14 days; format: organism-based; conditions: in vivo, 336 h, dose 1000-5000 mg/kg, time 14 day
A549 = test: Cytotoxicity against human A549 cells assessed as inhibition of cell growth incubated for 72 hrs by MTT assay; format: functional, cell-based; conditions: A549, 72 h
RAW264.7 [12] = test: Induction of apoptosis in mouse RAW264.7 cells assessed as early apoptotic cells at 0.1 uM after 48 hrs by Annexin V-FITC/PI based flow cytometric analysis (RVB=5.57%); format: functional
RAW264.7 [13] = test: Induction of apoptosis in mouse RAW264.7 cells assessed as early apoptotic cells at 1 uM after 48 hrs by Annexin V-FITC/PI based flow cytometric analysis (RVB=5.57%); format: functional
RAW264.7 [14] = test: Induction of apoptosis in mouse RAW264.7 cells assessed as late apoptotic cells at 0.25 uM after 48 hrs by Annexin V-FITC/PI based flow cytometric analysis (RVB=0.098%); format: functional
RAW264.7 [15] = test: Induction of cell cycle arrest in mouse RAW264.7 cells assessed as accumulation of cells in S phase at 0.5 uM incubated for 24 hrs by PI/RNase staining based flow cytometric analysis (RVB = 34.03%); format: functional
[16] = Acute toxicity in C57BL/6J mouse assessed as mortality at 1000 to 5000 mg/kg measured after 14 days; format: organism-based; conditions: in vivo, 336 h, dose 1000-5000 mg/kg, time 14 day
RAW264.7 [17] = test: Induction of apoptosis in mouse RAW264.7 cells assessed as apoptotic cells by measuring blue fluorescence after 48 hrs by Hoechst33342 staining based fluorescence microscopy; format: functional, cell-based; conditions: dose 0.1-1 µM, DDE = dose-dependent effect
NCI-H1581 = test: Cytotoxicity against human NCI-H1581 cells assessed as inhibition of cell growth incubated for 72 hrs by MTT assay; format: functional, cell-based; conditions: NCI-H1581, 72 h
RAW264.7 [18] = test: Induction of apoptosis in mouse RAW264.7 cells assessed as late apoptotic cells at 1 uM after 48 hrs by Annexin V-FITC/PI based flow cytometric analysis (RVB=0.098%); format: functional
RAW264.7 [19] = test: Induction of apoptosis in mouse RAW264.7 cells assessed as viable cells at 0.25 uM after 48 hrs by Annexin V-FITC/PI based flow cytometric analysis (RVB=94.1%); format: functional; conditions: read-out: Activity
RAW264.7 [20] = test: Induction of apoptosis in mouse RAW264.7 cells assessed as viable cells at 0.5 uM after 48 hrs by Annexin V-FITC/PI based flow cytometric analysis (RVB=94.1%); format: functional; conditions: read-out: Activity
RAW264.7 [21] = test: Induction of apoptosis in mouse RAW264.7 cells assessed as apoptotic cells measured after 48 hrs by acridine orange/ethidium bromide staining based fluorescence microscopy; format: functional, cell-based; conditions: dose 0.1-1 µM, DDE = dose-dependent effect
RAW264.7 [22] = test: Induction of cell cycle arrest in mouse RAW264.7 cells assessed as accumulation of cells in S phase at 0.1 uM incubated for 24 hrs by PI/RNase staining based flow cytometric analysis (RVB = 34.03%); format: functional
RAW264.7 [23] = test: Induction of cell cycle arrest in mouse RAW264.7 cells assessed as accumulation of cells in G2 phase at 0.1 uM incubated for 24 hrs by PI/RNase staining based flow cytometric analysis (RVB = 10.90%); format: functional
NCI-H2228 = test: Cytotoxicity against human H2228 cells assessed as inhibition of cell growth incubated for 72 hrs by MTT assay; format: functional, cell-based; conditions: NCI-H2228, 72 h
RAW264.7 [24] = test: Inhibition of colony formation in mouse RAW264.7 cells incubated for 72 hrs by crystal violet staining method; format: functional, cell-based; conditions: dose 0.1-1 µM, DDE = dose-dependent effect
RAW264.7 [25] = test: Induction of apoptosis in mouse RAW264.7 cells assessed as early apoptotic cells at 0.5 uM after 48 hrs by Annexin V-FITC/PI based flow cytometric analysis (RVB=5.57%); format: functional
RAW264.7 [26] = test: Cytotoxicity against mouse RAW264.7 cells assessed as inhibition of cell growth incubated for 72 hrs by MTT assay; format: functional, cell-based; conditions: RAW264.7, 72 h
RAW264.7 [27] = test: Induction of apoptosis in mouse RAW264.7 cells assessed as necrotic cells at 0.5 uM after 48 hrs by Annexin V-FITC/PI based flow cytometric analysis (RVB=0.26%); format: functional
RAW264.7 [28] = test: Induction of cell cycle arrest in mouse RAW264.7 cells assessed as accumulation of cells in S phase at 1 uM incubated for 24 hrs by PI/RNase staining based flow cytometric analysis (RVB = 34.03%); format: functional
Hep 3B2 = test: Cytotoxicity against human Hep3B cells assessed as inhibition of cell growth incubated for 72 hrs by MTT assay; format: functional, cell-based
RAW264.7 [29] = test: Induction of cell cycle arrest in mouse RAW264.7 cells assessed as accumulation of cells in G2 phase at 1 uM incubated for 24 hrs by PI/RNase staining based flow cytometric analysis (RVB = 10.90%); format: functional

Work on CCc1nc2c(C)cc(-c3ccc(CN4CCN(CCO)CC4)cc3)cn2c1NC(=O)OCc1cc(Cl)cc(Cl)c1 yielded an Activity (RAW264.7 [1]) of 0.28%, an Activity (RAW264.7 [2]) of 70.82% and a viability at 1 µM (RAW264.7 [3]) of 90%. The Activity [4] was “Toxic”, the Activity (RAW264.7 [5]) was 10.61% and the Activity (RAW264.7 [6]) was 14.72%. For the same compound, the Activity (RAW264.7 [7]) was 6%, the IC50 (MDA-MB-231) was 3.29 µM and the Activity (RAW264.7 [8]) was 0.68%. The inhibition (RAW264.7 [9]) was “Active”, the Activity (RAW264.7 [10]) was 0.83% and the Activity [11] was “Non-Toxic”. The IC50 (A549) was 6.59 µM, the Activity (RAW264.7 [12]) was 6.04% and the Activity (RAW264.7 [13]) was 8.43%. For the same compound, the Activity (RAW264.7 [14]) was 1.73%, the Activity (RAW264.7 [15]) was 4.78% and the Activity [16] was “Non-Toxic”. For the same compound, the Activity (RAW264.7 [17]) was “Dde”, the IC50 (NCI-H1581) was 4.76 µM and the Activity (RAW264.7 [18]) was 0.74%. For the same compound, the viability at 0.25 µM (RAW264.7 [19]) was 92%, the viability at 0.5 µM (RAW264.7 [20]) was 90.4% and the Activity (RAW264.7 [21]) was “Dde”. It also gave an Activity (RAW264.7 [22]) of 25.72%, an Activity (RAW264.7 [23]) of 59.56% and an IC50 (NCI-H2228) of 4.27 µM. The inhibition (RAW264.7 [24]) was “Dde”, the Activity (RAW264.7 [25]) was 7.65% and the IC50 (RAW264.7 [26]) was 0.63 µM. For the same compound, the Activity (RAW264.7 [27]) was 1.03%, the Activity (RAW264.7 [28]) was 2.63% and the IC50 (Hep 3B2) was 0.58 µM. For the same compound, the Activity (RAW264.7 [29]) was 90.16%.
